According to ChEMBL document CHEMBL3271967, “Evidence for separate peptide sequences related to the lipolytic and magnesium-accumulating activities of ACTH. Analogy with adrenergic receptors” (J Med Chem, 1977):
Active and inactive are the calls of the source. The calls are words filed in the database; no cut-off is given here. Residues, ends and D or L forms follow the SMILES beside them.

Experiments:
[1] = organism: Rattus norvegicus; assay: Induction of magnesium accumulation in rat adipocyte plasma membrane vesicles assessed as increase of intravesicular magnesium level per 30 mins at 1 x 10^-5 M by fluorescence assay in presence of beta-adrenergic antagonist propranolol; format: functional, cell membranes
[2] = organism: Rattus norvegicus; assay: Induction of magnesium accumulation in rat adipocyte plasma membrane vesicles assessed as increase of magnesium level per gram of protein per 30 mins at 1 x 10^-5 M by fluorescence assay in presence of beta-adrenergic antagonist propranolol; format: functional, cell membranes
[3] = organism: Rattus norvegicus; assay: Induction of magnesium accumulation in rat adipocyte plasma membrane vesicles assessed as increase of magnesium level per gram of protein per 30 mins at 1 x 10^-5 M by fluorescence assay in presence of alpha-adrenergic antagonist phentolamine; format: functional, cell membranes
[4] = organism: Rattus norvegicus; assay: Induction of magnesium accumulation in rat adipocyte plasma membrane vesicles assessed as increase of intravesicular magnesium level per 30 mins at 1 x 10^-5 M by fluorescence assay in presence of alpha-adrenergic antagonist phentolamine; format: functional, cell membranes
[5] = organism: Rattus norvegicus; assay: Induction of magnesium accumulation in rat adipocyte plasma membrane vesicles assessed as increase of intravesicular magnesium level per 30 mins at 1 x 10^-5 M by fluorescence assay; format: functional, cell membranes
[6] = organism: Rattus norvegicus; assay: Induction of magnesium accumulation in rat adipocyte plasma membrane vesicles assessed as increase of magnesium level per gram of protein per 30 mins at 1 x 10^-5 M by fluorescence assay; format: functional, cell membranes
[7] = organism: Rattus norvegicus; assay: Induction of magnesium accumulation in rat adipocyte plasma membrane vesicles assessed as increase of intravesicular magnesium level per 30 mins at 5 x 10^-8 M by fluorescence assay; format: functional, cell membranes
[8] = tested on: Lipid bilayer; assay: Lipolytic activity in isolated rat adipocytes assessed as fatty acid release at 0.5 to 100 nmol/ml
[9] = organism: Rattus norvegicus; assay: Induction of magnesium accumulation in rat adipocyte plasma membrane vesicles assessed as increase of magnesium level per gram of protein per 30 mins at 5 x 10^-8 M by fluorescence assay; format: functional, cell membranes
[10] = organism: Rattus norvegicus; assay: Induction of magnesium accumulation in rat adipocyte plasma membrane vesicles assessed as increase of intravesicular magnesium level per 30 mins at 2 x 10^-4 M by fluorescence assay; format: functional, cell membranes
[11] = organism: Rattus norvegicus; assay: Induction of magnesium accumulation in rat adipocyte plasma membrane vesicles assessed as increase of magnesium level per gram of protein per 30 mins at 2 x 10^-4 M by fluorescence assay; format: functional, cell membranes

SMILES | Activity [5] | Activity [6] | Activity [7] | Activity [8] | Activity [9] | further results
NC[C@H](O)c1ccc(O)c(O)c1 | 1.3 mM | 13.5 µmol |  |  |  | Activity [1]: 0.85 mM; Activity [2]: 8.84 µmol; Activity [3]: 3.85 µmol; Activity [4]: 0.37 mM
CC(C)[C@H](NC(=O)[C@H](CCCCN)NC(=O)[C@@H](NC(=O)[C@@H]1CCCN1C(=O)[C@H](CCCNC(=N)N)NC(=O)[C@H](CCCNC(=N)N)NC(=O)[C@H](CCCCN)NC(=O)[C@H](CCCCN)NC(=O)CNC(=O)[C@@H](NC(=O)[C@@H]1CCCN1C(=O)[C@@H](N)CCCCN)C(C)C)C(C)C)C(=O)N[C@@H](Cc1ccc(O)cc1)C(=O)N1CCC[C@H]1C(=O)O (H-KPVGKKRRPVKVYP-OH) |  |  | 0.8 mM | inactive | 8.32 µmol | 
CSCC[C@H](NC(=O)[C@H](CO)NC(=O)[C@H](Cc1ccc(O)cc1)NC(=O)[C@@H](N)CO)C(=O)N[C@@H](CCC(=O)O)C(=O)N[C@@H](Cc1cnc[nH]1)C(=O)N[C@@H](Cc1ccccc1)C(=O)N[C@@H](CCCNC(=N)N)C(=O)N[C@@H](Cc1c[nH]c2ccccc12)C(=O)NCC(=O)N[C@@H](CCCCN)C(=O)N1CCC[C@H]1C(=O)N[C@H](C(=O)NCC(=O)N[C@@H](CCCCN)C(=O)N[C@@H](CCCCN)C(=O)N[C@@H](CCCNC(=N)N)C(=O)N[C@@H](CCCNC(=N)N)C(=O)N1CCC[C@H]1C(=O)N[C@H](C(=O)O)C(C)C)C(C)C (H-SYSMEHFRWGKPVGKKRRPV-OH) |  |  | 0.36 mM | Active | 3.74 µmol | 
COc1ccc(OC)c(C(O)C(C)N)c1 (stereo not drawn) |  |  |  |  |  | Activity [10]: 1.07 mM; Activity [11]: 11.1 µmol
CSCC[C@H](NC(=O)[C@H](CO)NC(=O)[C@H](Cc1ccc(O)cc1)NC(=O)[C@@H](N)CO)C(=O)N[C@@H](CCC(=O)O)C(=O)N[C@@H](Cc1cnc[nH]1)C(=O)N[C@@H](Cc1ccccc1)C(=O)N[C@@H](CCCNC(=N)N)C(=O)N[C@@H](Cc1c[nH]c2ccccc12)C(=O)NCC(=O)N[C@@H](CCCCN)C(=O)N1CCC[C@H]1C(=O)N[C@H](C(=O)NCC(=O)N[C@@H](CCCCN)C(=O)N[C@@H](CCCCN)C(=O)N[C@@H](CCCNC(=N)N)C(=O)N[C@@H](CCCNC(=N)N)C(=O)N1CCC[C@H]1C(=O)N[C@H](C(=O)N[C@@H](CCCCN)C(=O)N[C@H](C(=O)N[C@@H](Cc1ccc(O)cc1)C(=O)N1CCC[C@H]1C(=O)N[C@@H](CC(N)=O)C(=O)NCC(=O)N[C@@H](C)C(=O)N[C@@H](CCC(=O)O)C(=O)N[C@@H](CC(=O)O)C(=O)N[C@@H](CCC(=O)O)C(=O)N[C@@H](CC(C)C)C(=O)N[C@@H](C)C(=O)N[C@@H](CCC(=O)O)C(=O)N[C@@H](C)C(=O)N[C@@H](Cc1ccccc1)C(=O)N1CCC[C@H]1C(=O)N[C@@H](CC(C)C)C(=O)N[C@@H](CCC(=O)O)C(=O)N[C@@H](Cc1ccccc1)C(=O)O)C(C)C)C(C)C)C(C)C (H-SYSMEHFRWGKPVGKKRRPVKVYPNGAEDELAEAFPLEF-OH) |  |  | 0.94 mM |  | 9.78 µmol | 
CC(C)NCC(O)c1ccc(O)c(O)c1 (stereo not drawn) | 0.3 mM | 3.12 µmol |  |  |  | 
